# Measurements reported in patent US20240010653A1, “Crystalline Forms of 4-amino-N-[4-(methoxymethyl)phenyl]-7-(1-methylcyclopropyl)-6-(3-morpholinoprop-1-yn-1-yl)-7H-pyrrolo[2,3-d]pyrimidine-5-carboxamide” (Helsinn Healthcare SA, priority 2020, published 2024).
# Where a name gives a salt, the structure may show the parent alone.
# Columns and labels:
# Assay type in all cases: physicochemical
# [1] = Storage stability, accelerated conditions 40° C./75% relative humidity; settings: for HPLC assay (anhydrous) / HPLC purity: 12-HM06 / HPLC purity: impurity 12-HM06.il (RRT 0.92-.94) / HPLC purity: impurity RRT 0.56 / HPLC purity: impurity RRT 1.11 / HPLC purity: impurity RRT 1.20-1.24 / HPLC purity: impurity RRT 1.41-1.42 / Water content (KF) / XRPD: 40° C./75% relative humidity
# Experimental: (§1) Samples of HM06 1:2 HCl Form 1 were subjected to accelerated storage conditions and long-term storage.
# Samples of HM06 1:2 HCl Form 1 from the same lot were stored at 40° C. and 75% relative humidity for 24 months with testing at regular intervals.
# [2] = Storage stability, long term conditions 25° C. and 60% relative humidity
# From the text: as §1
# Table 25 sets forth the sample analysis at times 0, 3 months, 6 months, 9 months, 12 months, 18 months, and 24 months.
# [3] = Saturated solution in methanol; settings: room temperature
# Experimental: A saturated solution of HM06 1:2 HCl Form 1 in methanol approx. 50 mg/mL was prepared and allowed to stir at room temperature overnight (18 hours). After this time, it was filtered and left to evaporate at 25° C./700 mbar. The preparation of the sample plate sealed with Kapton film was performed under 40-45% RH. Some very minor signals of Form 1 were present.
# [4] = Uptake of water from air by dehydrated form, followed by VP-XRPD; settings: after vacuum 0.07 mbar; ambient condition, RH about 80%
# Experimental: VP-XRPD measurements were performed on the Panalytical X'pert equipped with the Anton Paar TTK450 chamber which allowed for measurement of the powder in-situ at controlled temperature and/or under vacuum.
# The first measurement was collected at RT and atmospheric pressure. The sample was then left for 15 minutes under vacuum (0.07 mbar).
# The uptake of water by Form 1-bis was observed via XRPD by following the difference in the pattern in the range 2θ=25.5°-27-5° (see FIG. 5C). Under vacuum the highest peak is the peak at 2θ=26.7° while after exposure of the sample in air 2 minutes the highest is at 2θ=26.4°. The peak at 2θ=26.4° moves to 2θ=26.2° in 20 minutes. HM06 1:2 HCl crystalline Form 1-bis uptakes the water from the atmosphere as soon as the powder is exposed to the air, and it reaches the diffraction pattern of the starting material in 20 minutes (see […] 5D). This experiment was done in ambient condition with RH % of the room about at 80%.
# [5] = Solid form (polymorph) stability on storage, followed by XRPD; settings: for Form stability (XRPD) after storage in a sealed vial: seven days in a sealed vial
# Experimental: The stability of Form 4-bis was assessed after seven days of storage in a sealed vial.
# HM06 1:2 HCl Form 4 exposed powder was stored overnight at room temperature under 43% RH.
# The stability of the HM06 1:2 HCl Form 5-bis sample was assessed after 18 hours exposed to air and after one week in a sealed vial, both at room temperature.
# Form 5-bis was measured after 18 hours exposed powder at room temperature. The % RH was approx. of 45%.
# These changes could not be associated with conversion into one of the other isolated polymorphs observed during this study: thus, the sample was considered not stable.
# HM06 1:2 HCl Form 5-bis was measured after seven days at room temperature in a sealed vial.
# Form 6 was collected after evaporation of HM06 1:2 HCl Form 1 in a 1:1 acetonitrile/water solution at room temperature under low pressure.
smiles,measurement,setting,value
"COCc1ccc(NC(=O)c2c(C#CCN3CCOCC3)n(C3(C)CC3)c3ncnc(N)c23)cc1 [HM06 1:2 HCl Form 1, 4-amino-N-[4-(methoxymethyl)phenyl]-7-(1-methylcyclopropyl)-6-(3-morpholinoprop-1-yn-1-yl)-7H-pyrrolo[2,3-d]pyrimidine-5-carboxamide]",HPLC assay (anhydrous),[1]; 0 months,99%
same,HPLC purity: 12-HM06,[1]; 0 months,99%
same,HPLC purity: impurity 12-HM06.il (RRT 0.92-.94),[1]; 0 months,0.51%
same,HPLC purity: impurity RRT 0.56,[1]; 0 months,not detected
same,HPLC purity: impurity RRT 1.11,[1]; 0 months,not detected
same,HPLC purity: impurity RRT 1.20-1.24,[1]; 0 months,0.20%
same,HPLC purity: impurity RRT 1.41-1.42,[1]; 0 months,0.06%
same,Water content (KF),[1]; 0 months,6%
same,XRPD,[1]; 0 months,Crystalline
same,HPLC assay (anhydrous),[1]; 1 month,100%
same,HPLC purity: 12-HM06,[1]; 1 month,99%
same,HPLC purity: impurity 12-HM06.il (RRT 0.92-.94),[1]; 1 month,0.51%
same,HPLC purity: impurity RRT 0.56,[1]; 1 month,not detected
same,HPLC purity: impurity RRT 1.11,[1]; 1 month,not detected
same,HPLC purity: impurity RRT 1.20-1.24,[1]; 1 month,0.20%
same,HPLC purity: impurity RRT 1.41-1.42,[1]; 1 month,0.06%
same,Water content (KF),[1]; 1 month,6%
same,XRPD,[1]; 1 month,Crystalline
same,HPLC assay (anhydrous),[1]; 3 months,102%
same,HPLC purity: 12-HM06,[1]; 3 months,99%
same,HPLC purity: impurity 12-HM06.il (RRT 0.92-.94),[1]; 3 months,0.51%
same,HPLC purity: impurity RRT 0.56,[1]; 3 months,not detected
same,HPLC purity: impurity RRT 1.11,[1]; 3 months,not detected
same,HPLC purity: impurity RRT 1.20-1.24,[1]; 3 months,0.20%
same,HPLC purity: impurity RRT 1.41-1.42,[1]; 3 months,0.06%
same,Water content (KF),[1]; 3 months,5%
same,XRPD,[1]; 3 months,Crystalline
same,HPLC assay (anhydrous),[1]; 6 months,98%
same,HPLC purity: 12-HM06,[1]; 6 months,99%
same,HPLC purity: impurity 12-HM06.il (RRT 0.92-.94),[1]; 6 months,0.51%
same,HPLC purity: impurity RRT 0.56,[1]; 6 months,0.05%
same,HPLC purity: impurity RRT 1.11,[1]; 6 months,0.05%
same,HPLC purity: impurity RRT 1.20-1.24,[1]; 6 months,0.19%
same,HPLC purity: impurity RRT 1.41-1.42,[1]; 6 months,0.06%
same,Water content (KF),[1]; 6 months,5%
same,XRPD,[1]; 6 months,Crystalline
same,"Storage stability, overall result",[1]; accelerated storage conditions and long-term storage,remained stable and crystalline
same,HPLC assay (anhydrous),[2]; 0 months,99%
same,HPLC purity: 12-HM06,[2]; 0 months,99%
same,HPLC purity: impurity 12-HM06.il (RRT 0.92-0.94),[2]; 0 months,0.51%
same,HPLC purity: impurity RRT 1.20-1.24,[2]; 0 months,0.20%
same,HPLC purity: impurity RRT 1.41-1.42,[2]; 0 months,0.06%
same,Water content (KF),[2]; 0 months,6%
same,XRPD,[2]; 0 months,Crystalline
same,HPLC assay (anhydrous),[2]; 3 months,102%
same,HPLC purity: 12-HM06,[2]; 3 months,99%
same,HPLC purity: impurity 12-HM06.il (RRT 0.92-0.94),[2]; 3 months,0.51%
same,HPLC purity: impurity RRT 1.20-1.24,[2]; 3 months,0.20%
same,HPLC purity: impurity RRT 1.41-1.42,[2]; 3 months,0.06%
same,Water content (KF),[2]; 3 months,5%
same,XRPD,[2]; 3 months,Crystalline
same,HPLC assay (anhydrous),[2]; 6 months,99%
same,HPLC purity: 12-HM06,[2]; 6 months,99%
same,HPLC purity: impurity 12-HM06.il (RRT 0.92-0.94),[2]; 6 months,0.51%
same,HPLC purity: impurity RRT 1.20-1.24,[2]; 6 months,0.20%
same,HPLC purity: impurity RRT 1.41-1.42,[2]; 6 months,0.06%
same,Water content (KF),[2]; 6 months,5%
same,XRPD,[2]; 6 months,Crystalline
same,HPLC assay (anhydrous),[2]; 9 months,99%
same,HPLC purity: 12-HM06,[2]; 9 months,99%
same,HPLC purity: impurity 12-HM06.il (RRT 0.92-0.94),[2]; 9 months,0.51%
same,HPLC purity: impurity RRT 1.20-1.24,[2]; 9 months,0.20%
same,HPLC purity: impurity RRT 1.41-1.42,[2]; 9 months,0.06%
same,Water content (KF),[2]; 9 months,5%
same,XRPD,[2]; 9 months,Crystalline
same,HPLC assay (anhydrous),[2]; 12 months,99%
same,HPLC purity: 12-HM06,[2]; 12 months,99%
same,HPLC purity: impurity 12-HM06.il (RRT 0.92-0.94),[2]; 12 months,0.51%
same,HPLC purity: impurity RRT 1.20-1.24,[2]; 12 months,0.20%
same,HPLC purity: impurity RRT 1.41-1.42,[2]; 12 months,0.06%
same,Water content (KF),[2]; 12 months,6%
same,XRPD,[2]; 12 months,Crystalline
same,HPLC assay (anhydrous),[2]; 18 months,97%
same,HPLC purity: 12-HM06,[2]; 18 months,99%
same,HPLC purity: impurity 12-HM06.il (RRT 0.92-0.94),[2]; 18 months,0.51%
same,HPLC purity: impurity RRT 0.85,[2]; 18 months,0.05%
same,HPLC purity: impurity RRT 1.11,[2]; 18 months,0.05%
same,HPLC purity: impurity RRT 1.20-1.24,[2]; 18 months,0.19%
same,HPLC purity: impurity RRT 1.41-1.42,[2]; 18 months,0.06%
same,Water content (KF),[2]; 18 months,5%
same,XRPD,[2]; 18 months,Crystalline
same,HPLC assay (anhydrous),[2]; 24 months,100%
same,HPLC purity: 12-HM06,[2]; 24 months,99%
same,HPLC purity: impurity 12-HM06.il (RRT 0.92-0.94),[2]; 24 months,0.51%
same,HPLC purity: impurity RRT 0.85,[2]; 24 months,0.06%
same,HPLC purity: impurity RRT 1.20-1.24,[2]; 24 months,0.19%
same,HPLC purity: impurity RRT 1.41-1.42,[2]; 24 months,0.06%
same,Water content (KF),[2]; 24 months,6%
same,XRPD,[2]; 24 months,Crystalline
same,Concentration of saturated solution in methanol,[3],approx. 50 mg/mL
"COCc1ccc(NC(=O)c2c(C#CCN3CCOCC3)n(C3(C)CC3)c3ncnc(N)c23)cc1 [HM06 1:2 HCl Form 1-bis, 4-amino-N-[4-(methoxymethyl)phenyl]-7-(1-methylcyclopropyl)-6-(3-morpholinoprop-1-yn-1-yl)-7H-pyrrolo[2,3-d]pyrimidine-5-carboxamide]",Time in air to reach the diffraction pattern of the starting material (Form 1) by uptake of water,[4],20 min
"COCc1ccc(NC(=O)c2c(C#CCN3CCOCC3)n(C3(C)CC3)c3ncnc(N)c23)cc1 [HM06 1:2 HCl Form 4, 4-amino-N-[4-(methoxymethyl)phenyl]-7-(1-methylcyclopropyl)-6-(3-morpholinoprop-1-yn-1-yl)-7H-pyrrolo[2,3-d]pyrimidine-5-carboxamide]",Form stability (XRPD) of exposed powder,[5]; stored overnight at room temperature under 43% RH,No significant modifications
"COCc1ccc(NC(=O)c2c(C#CCN3CCOCC3)n(C3(C)CC3)c3ncnc(N)c23)cc1 [HM06 1:2 HCl Form 4-bis, 4-amino-N-[4-(methoxymethyl)phenyl]-7-(1-methylcyclopropyl)-6-(3-morpholinoprop-1-yn-1-yl)-7H-pyrrolo[2,3-d]pyrimidine-5-carboxamide]",Form stability (XRPD) after storage in a sealed vial,[5]; listed as Form 4-bis,complete conversion into Form 1
"COCc1ccc(NC(=O)c2c(C#CCN3CCOCC3)n(C3(C)CC3)c3ncnc(N)c23)cc1 [HM06 1:2 HCl Form 5-bis, 4-amino-N-[4-(methoxymethyl)phenyl]-7-(1-methylcyclopropyl)-6-(3-morpholinoprop-1-yn-1-yl)-7H-pyrrolo[2,3-d]pyrimidine-5-carboxamide]",Form stability (XRPD) of exposed powder,"[5]; 18 hours exposed to air at room temperature, approx. 45% RH",not stable
same,Form stability (XRPD) after storage in a sealed vial,[5],started to convert into Form 1
"COCc1ccc(NC(=O)c2c(C#CCN3CCOCC3)n(C3(C)CC3)c3ncnc(N)c23)cc1 [HM06 1:2 HCl Form 6, 4-amino-N-[4-(methoxymethyl)phenyl]-7-(1-methylcyclopropyl)-6-(3-morpholinoprop-1-yn-1-yl)-7H-pyrrolo[2,3-d]pyrimidine-5-carboxamide]",Form stability on storage,"[5]; 6 days of storage, room temperature under low pressure",conversion into Form 1
